{
  "source": "paper PMC6186498",
  "about": "(Toxicology, 2018)",
  "key": {"[1]": {"settings": "for TCA(%), percentage of administered TCE excreted in urine / TCOH (%): This study (% estimated), 800 mg/kg oral, M"}, "[2]": {"settings": "cited from earlier work"}, "[3]": {"settings": "cited from earlier work", "remark": "listed apart in the source"}, "[4]": {"settings": "human, M, cited from earlier work"}, "[5]": {"settings": "at low doses; ref Chiu et al. 2009; cited from earlier work"}, "[6]": {"settings": "cited from earlier work", "remark": "listed apart in the source"}, "[7]": {"settings": "mean ± SD, average of all strains, single oral dose 6 mmole/kg"}, "[8]": {"settings": "model-derived AUCs across strains"}, "[9]": {"settings": "range over strains, model estimate"}, "[10]": {"settings": "200 mg/kg stomach tube, mice NMRI, F, ref Dekant et al. 1984"}, "[11]": {"settings": "500 mg/kg oral, mice B6C3F1/J, M, ref Green and Prout 1985"}, "[12]": {"settings": "600 mg/kg oral, mice B6C3F1/J, M, ref Larson and Bull 1992"}, "[13]": {"settings": "1000 mg/kg oral, mice, PBPK model estimate, ref Chiu et al 2009"}, "[14]": {"settings": "2100 mg/kg oral, mice B6C3F1/J, M, PBPK model estimate, ref Chiu et al 2014"}, "[15]": {"settings": "200 mg/kg stomach tube, rat Wistar, F, ref Dekant et al. 1984"}, "[16]": {"settings": "500 mg/kg oral, rat Osborne-Mendal, M, ref Green and Prout 1985"}, "[17]": {"settings": "600 mg/kg oral, rat Sprague-Dawley, M, ref Larson and Bull 1992"}, "[18]": {"settings": "100 ppm inhalation, rat, PBPK model estimate, ref Chiu et al 2009"}, "[19]": {"settings": "1 ppm inhalation, PBPK model estimate, ref Chiu et al 2009"}, "[20]": {"settings": "1 ppm inhalation, ref Chiu et al 2006"}, "[21]": {"settings": "70 ppm inhalation, ref Monster 1976"}, "[22]": {"settings": "70 ppm inhalation, ref Monster 1979"}},
  "note": "Where two headings read alike, the source gives them in different places. Marks after values point to notes of the source that are not given here.",
  "data": [
    {"molecule": "ClC=C(Cl)Cl", "note": "[TCE, Trichloroethylene]", "values": [
      {"measurement": "AUC0–36 of TCE as compared to AUC0–36 of PCE, kidney", "setting": "[1]; B6C3F1/J mice, kidney", "result": 2.0, "unit": "%"},
      {"measurement": "AUC0–36 of TCE as compared to AUC0–36 of PCE, liver", "setting": "[1]; B6C3F1/J mice, liver", "result": 43.9, "unit": "%"},
      {"measurement": "AUC0–36 of TCE as compared to AUC0–36 of PCE, lung", "setting": "[1]; B6C3F1/J mice, lung", "result": 36.2, "unit": "%"},
      {"measurement": "AUC0–36 of TCE as compared to AUC0–36 of PCE, serum", "setting": "[1]; B6C3F1/J mice, serum", "result": 39.8, "unit": "%"},
      {"measurement": "TCA(%), percentage of administered TCE excreted in urine", "setting": "[1]; mice B6C3F1/J", "result": 5.8, "unit": "%"},
      {"measurement": "TCOH (%)", "setting": "[1]; mice B6C3F1/J", "result": 21, "unit": "%"},
      {"measurement": "TCA(%), percentage of administered TCE excreted in urine", "setting": "[1]; mice C57BL/6J", "result": 3.5, "unit": "%"},
      {"measurement": "TCOH (%)", "setting": "[1]; mice C57BL/6J", "result": 12, "unit": "%"},
      {"measurement": "TCA(%), percentage of administered TCE excreted in urine", "setting": "[1]; mice NZW/LacJ", "result": 7.1, "unit": "%"},
      {"measurement": "TCOH (%)", "setting": "[1]; mice NZW/LacJ", "result": 31, "unit": "%"},
      {"measurement": "flux through oxidation metabolism pathway over that through conjugation", "setting": "[1]; across all mouse strains examined", "result": "1,200–3,800 fold"},
      {"measurement": "overall flux of glutathione conjugation expressed as dose", "setting": "[1]; after equimolar treatment of TCE or PCE", "result": "0.13 to 0.17", "unit": "mg/kg"},
      {"measurement": "elimination constant for n-acetylcysteine conjugates in TCE-treated as compared to PCE-treated mice", "setting": "[1]; higher", "result": 1.5, "unit": "fold"},
      {"measurement": "TCE elimination rate constant relative to that for PCE", "setting": "[1]; higher than PCE", "result": 2.8, "unit": "fold"},
      {"measurement": "formation rate constant of TCA (KTCA) in TCE-treated versus PCE-treated mice", "setting": "[1]; higher than in PCE-treated mice", "result": 2.4, "unit": "fold"},
      {"measurement": "First order rate constant, Elimination NAcT/DCVC→", "setting": "[1]; [7]", "result": "23.8 ± 10.5", "unit": "h⁻¹"},
      {"measurement": "First order rate constant, Elimination T/PCE→", "setting": "[1]; [7]", "result": "0.49 ± 0.12", "unit": "h⁻¹"},
      {"measurement": "First order rate constant, Elimination TCA→", "setting": "[1]; [7]", "result": "0.05 ± 0.02", "unit": "h⁻¹"},
      {"measurement": "First order rate constant, Elimination TCOH→", "setting": "[1]; [7]", "result": "0.49 ± 0.13", "unit": "h⁻¹"},
      {"measurement": "First order rate constant, GSH conjugation D/TCVC→NAcD/TCVC", "setting": "[1]; [7]", "result": "73.4 ± 17.4", "unit": "h⁻¹"},
      {"measurement": "First order rate constant, GSH conjugation D/TCVC→Reactive species", "setting": "[1]; [7]", "result": "1.69 ± 0.45", "unit": "h⁻¹"},
      {"measurement": "First order rate constant, GSH conjugation D/TCVG→D/TCVC", "setting": "[1]; [7]", "result": "0.30 ± 0.07", "unit": "h⁻¹"},
      {"measurement": "First order rate constant, GSH conjugation T/PCE→D/TCVG", "setting": "[1]; [7]", "result": "(3.5±1.1)*10^−6 h^−1"},
      {"measurement": "First order rate constant, Oxidation T/PCE→TCA", "setting": "[1]; [7]", "result": "0.034 ± 0.010", "unit": "h⁻¹"},
      {"measurement": "First order rate constant, Oxidation T/PCE→TCOH", "setting": "[1]; [7]", "result": "0.13 ± 0.04", "unit": "h⁻¹"},
      {"measurement": "inter-strain variability of AUC of glutathione conjugation metabolites, GSD", "setting": "[1]; [8]", "result": "1.04−1.92"},
      {"measurement": "inter-strain variability of AUC of oxidative metabolites (TCA and TCOH), GSD", "setting": "[1]; [8]", "result": "1.24−2.04"},
      {"measurement": "AUC0–36 of TCE as compared to AUC0–36 of PCE, brain", "setting": "[1]; mouse, in vivo", "result": 29.0, "unit": "%"},
      {"measurement": "elimination rate constant (Ke) of TCA in TCE-treated mice as % of that in PCE-treated mice", "setting": "[1]; mouse, in vivo", "result": 62.5, "unit": "%"},
      {"measurement": "yield through glutathione conjugation pathway as % of that through oxidative pathway", "setting": "[1]; range given for TCE and PCE together, approximately", "result": 0.033, "unit": "%−3.3"},
      {"measurement": "portion of the parent compound that undergoes metabolism", "setting": "[1]; range over strains", "result": 15.7, "unit": "%−38.3"},
      {"measurement": "Excreted TCA, % of the total dose", "setting": "[1]; [9]", "result": 3.5, "unit": "%−7.1"},
      {"measurement": "TCOH, % of the total dose", "setting": "[1]; [9]", "result": "12.2−31.2%"},
      {"measurement": "estimated fraction of the reactive species formation from cysteine conjugates", "setting": "[1]; [9]", "result": "2.1% to 2.4"},
      {"measurement": "fraction of the total administered dose remaining unmetabolized until excretion", "setting": "[1]; range over strains, model estimate at steady state", "result": "61.7% to 84.3"},
      {"measurement": "AUC0–36 of TCA in TCE-treated mice as compared to PCE-treated mice", "setting": "[1]; serum, liver, brain, and lung, except for C57BL/6J mice, higher", "result": "1.2–1.7 fold"},
      {"measurement": "TCA(%), percentage of total urinary metabolite calculated based on radioactivity", "setting": "[2]; [10]", "result": "0.1 ^* %"},
      {"measurement": "TCOH (%), percentage of total urinary metabolite calculated based on radioactivity", "setting": "[2]; [10]", "result": "94.3 ^* %"},
      {"measurement": "TCA(%), percentage of total urinary metabolite calculated based on radioactivity", "setting": "[2]; [11]", "result": "7.2 ^* %"},
      {"measurement": "TCOH (%), percentage of total urinary metabolite calculated based on radioactivity", "setting": "[2]; [11]", "result": "91.1 ^* %"},
      {"measurement": "TCA(%), percentage of administered TCE excreted in urine", "setting": "[2]; [12]", "result": 3.9, "unit": "%"},
      {"measurement": "TCOH (%)", "setting": "[2]; [12]", "result": 31, "unit": "%"},
      {"measurement": "GSH conjugation (%)", "setting": "[2]; [13]", "result": 0.2, "unit": "%"},
      {"measurement": "Oxidation to GSH", "setting": "[2]; [13]", "result": 450},
      {"measurement": "TCA(%) and TCOH (%), one cell spanning both columns", "setting": "[2]; [13]", "result": 90, "unit": "%"},
      {"measurement": "GSH conjugation (%)", "setting": "[2]; [14]", "result": 0.065, "unit": "%"},
      {"measurement": "Oxidation to GSH", "setting": "[2]; [14]", "result": 290},
      {"measurement": "TCA(%), percentage of administered TCE excreted in urine", "setting": "[2]; [14]", "result": 4.4, "unit": "%"},
      {"measurement": "inter-strain variability of TCA levels in liver, GSD", "setting": "[2]; Collaborative Cross mouse population, single oral dose of TCE, ref Venkatratnam et al. 2017", "result": 2.24},
      {"measurement": "TCA(%), percentage of total urinary metabolite calculated based on radioactivity", "setting": "[3]; [15]", "result": "15.3 ^* %"},
      {"measurement": "TCOH (%), percentage of total urinary metabolite calculated based on radioactivity", "setting": "[3]; [15]", "result": "73.6 ^* %"},
      {"measurement": "TCA(%), percentage of total urinary metabolite calculated based on radioactivity", "setting": "[3]; [16]", "result": "6.3 ^* %"},
      {"measurement": "TCOH (%), percentage of total urinary metabolite calculated based on radioactivity", "setting": "[3]; [16]", "result": "90.1 ^* %"},
      {"measurement": "TCA(%), percentage of administered TCE excreted in urine", "setting": "[3]; [17]", "result": 4.1, "unit": "%"},
      {"measurement": "TCOH (%)", "setting": "[3]; [17]", "result": 23.2, "unit": "%"},
      {"measurement": "GSH conjugation (%)", "setting": "[3]; [18]", "result": 0.06, "unit": "%"},
      {"measurement": "Oxidation to GSH", "setting": "[3]; [18]", "result": 666.7},
      {"measurement": "TCA(%) and TCOH (%), one cell spanning both columns", "setting": "[3]; [18]", "result": 40, "unit": "%"},
      {"measurement": "TCA(%), percentage of administered TCE excreted in urine", "setting": "[3]; 505 ppm inhalation, rat F344, M, PBPK model estimate, ref Fisher et al. 1991", "result": 6, "unit": "%"},
      {"measurement": "GSH conjugation (%)", "setting": "[4]; [19]", "result": 5, "unit": "%"},
      {"measurement": "Oxidation to GSH", "setting": "[4]; [19]", "result": 7.6},
      {"measurement": "TCA(%) and TCOH (%), one cell spanning both columns", "setting": "[4]; [19]", "result": 38, "unit": "%"},
      {"measurement": "TCA(%), percentage of administered TCE excreted in urine", "setting": "[4]; [20]", "result": "1–2%"},
      {"measurement": "TCOH (%)", "setting": "[4]; [20]", "result": "16–28%"},
      {"measurement": "TCA(%), percentage of administered TCE excreted in urine", "setting": "[4]; [21]", "result": 18, "unit": "%"},
      {"measurement": "TCOH (%)", "setting": "[4]; [21]", "result": 39, "unit": "%"},
      {"measurement": "TCA(%), percentage of administered TCE excreted in urine", "setting": "[4]; [22]", "result": 21, "unit": "%"},
      {"measurement": "TCOH (%)", "setting": "[4]; [22]", "result": 43, "unit": "%"},
      {"measurement": "glutathione conjugation metabolites of TCE in rodents as % of that in humans", "setting": "[5]", "result": "approximately 1%"},
      {"measurement": "carcinogenicity classification by IARC", "setting": "[6]; ref Guha et al. 2012", "result": "carcinogenic to humans"},
      {"measurement": "carcinogenicity classification by US EPA", "setting": "[6]; ref U.S. EPA 2011a, b", "result": "carcinogenic to humans"}
    ]}
  ]
}
